Experimental data reported in patent US20240425496A1, “AZETIDINYL PYRIMIDINES AND USES THEREOF” (Aerie Pharmaceuticals, Inc., priority 2021, published 2024).

Tests used:
JAK1 = JAK1 (Homo sapiens (Human), UniProt P23458); test: JAK kinase assay (KINASE-GLO luminescent), JAK1 enzyme; format: biochemical; details: JAK1 enzyme 10 nM, Abl peptide substrate
Description: (§1) All compounds were initially prepared as 10 mM stocks in anhydrous dimethylsulfoxide (DMSO). […] Test compounds were then serially diluted 1:5 in DMSO for an 11-point concentration response and further diluted in the assay buffer bringing all compound concentrations to a final range of 100 μM to 10 μM in 2.5% DMSO. […] The reaction was initiated by the addition of 10 μL of 4× stock solution ATP (2 μM). Reactions were thoroughly mixed manually, covered, and allowed to incubate at room temperature for 75 min. Protein kinase activity was quantitated using Promega's KINASE-GLO™ luminescent Kinase Assay Kit according to the manufacturer's directions. ATP concentrations remaining in Test wells following the termination of the enzymatic reaction were compared against control wells containing equivalent amounts of DMSO containing no inhibitor (CTRL). […] Percent of Control (POC) values were determined for each concentration of compound tested according to the equation: […]
(§2) IC50 values were calculated using the following 4-parameter logistic curve-fitting algorithm:
(§3) Compounds were prepared in the exact same manner as described in the ROCK Kinase Assay with the exception to the substrate and enzyme. […] All other steps and solutions remain identical to the ROCK Kinase Assay above.

TYK2 = TYK2 (Homo sapiens (Human), UniProt P29597); test: JAK kinase assay (KINASE-GLO luminescent), TYK2 enzyme; format: biochemical; details: TYK2 enzyme 10 nM, Abl peptide substrate
Description: as §1, §2, §3

JAK1, sequence (P23458 whole entry, species assumed): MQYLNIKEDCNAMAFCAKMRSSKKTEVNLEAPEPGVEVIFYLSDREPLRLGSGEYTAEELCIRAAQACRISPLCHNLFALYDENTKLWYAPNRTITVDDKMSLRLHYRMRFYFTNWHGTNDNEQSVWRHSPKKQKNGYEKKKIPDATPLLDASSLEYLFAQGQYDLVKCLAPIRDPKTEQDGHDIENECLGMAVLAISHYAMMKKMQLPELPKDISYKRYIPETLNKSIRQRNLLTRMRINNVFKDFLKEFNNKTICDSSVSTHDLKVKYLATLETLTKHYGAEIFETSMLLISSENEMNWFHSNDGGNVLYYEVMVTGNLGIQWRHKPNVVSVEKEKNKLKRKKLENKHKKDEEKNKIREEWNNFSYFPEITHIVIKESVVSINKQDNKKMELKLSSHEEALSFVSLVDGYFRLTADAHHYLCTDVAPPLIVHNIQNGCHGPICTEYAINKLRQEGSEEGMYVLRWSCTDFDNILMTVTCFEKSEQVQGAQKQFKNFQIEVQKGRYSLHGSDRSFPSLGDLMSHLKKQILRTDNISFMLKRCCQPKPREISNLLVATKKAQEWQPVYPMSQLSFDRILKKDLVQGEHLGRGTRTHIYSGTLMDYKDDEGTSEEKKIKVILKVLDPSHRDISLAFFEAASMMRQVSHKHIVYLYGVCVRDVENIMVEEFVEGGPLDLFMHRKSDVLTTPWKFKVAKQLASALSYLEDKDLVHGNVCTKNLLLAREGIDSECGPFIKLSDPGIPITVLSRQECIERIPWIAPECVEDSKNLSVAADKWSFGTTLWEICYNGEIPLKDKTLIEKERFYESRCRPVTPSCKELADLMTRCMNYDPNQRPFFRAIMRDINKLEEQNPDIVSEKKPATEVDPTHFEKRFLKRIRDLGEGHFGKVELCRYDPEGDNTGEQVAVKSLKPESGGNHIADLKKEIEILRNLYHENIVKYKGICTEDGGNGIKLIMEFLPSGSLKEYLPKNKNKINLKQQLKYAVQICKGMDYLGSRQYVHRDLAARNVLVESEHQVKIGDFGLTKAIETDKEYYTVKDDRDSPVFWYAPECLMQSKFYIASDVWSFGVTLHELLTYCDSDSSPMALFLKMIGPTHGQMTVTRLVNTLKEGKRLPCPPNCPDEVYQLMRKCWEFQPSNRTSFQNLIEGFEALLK
TYK2, sequence (P29597 whole entry, species assumed): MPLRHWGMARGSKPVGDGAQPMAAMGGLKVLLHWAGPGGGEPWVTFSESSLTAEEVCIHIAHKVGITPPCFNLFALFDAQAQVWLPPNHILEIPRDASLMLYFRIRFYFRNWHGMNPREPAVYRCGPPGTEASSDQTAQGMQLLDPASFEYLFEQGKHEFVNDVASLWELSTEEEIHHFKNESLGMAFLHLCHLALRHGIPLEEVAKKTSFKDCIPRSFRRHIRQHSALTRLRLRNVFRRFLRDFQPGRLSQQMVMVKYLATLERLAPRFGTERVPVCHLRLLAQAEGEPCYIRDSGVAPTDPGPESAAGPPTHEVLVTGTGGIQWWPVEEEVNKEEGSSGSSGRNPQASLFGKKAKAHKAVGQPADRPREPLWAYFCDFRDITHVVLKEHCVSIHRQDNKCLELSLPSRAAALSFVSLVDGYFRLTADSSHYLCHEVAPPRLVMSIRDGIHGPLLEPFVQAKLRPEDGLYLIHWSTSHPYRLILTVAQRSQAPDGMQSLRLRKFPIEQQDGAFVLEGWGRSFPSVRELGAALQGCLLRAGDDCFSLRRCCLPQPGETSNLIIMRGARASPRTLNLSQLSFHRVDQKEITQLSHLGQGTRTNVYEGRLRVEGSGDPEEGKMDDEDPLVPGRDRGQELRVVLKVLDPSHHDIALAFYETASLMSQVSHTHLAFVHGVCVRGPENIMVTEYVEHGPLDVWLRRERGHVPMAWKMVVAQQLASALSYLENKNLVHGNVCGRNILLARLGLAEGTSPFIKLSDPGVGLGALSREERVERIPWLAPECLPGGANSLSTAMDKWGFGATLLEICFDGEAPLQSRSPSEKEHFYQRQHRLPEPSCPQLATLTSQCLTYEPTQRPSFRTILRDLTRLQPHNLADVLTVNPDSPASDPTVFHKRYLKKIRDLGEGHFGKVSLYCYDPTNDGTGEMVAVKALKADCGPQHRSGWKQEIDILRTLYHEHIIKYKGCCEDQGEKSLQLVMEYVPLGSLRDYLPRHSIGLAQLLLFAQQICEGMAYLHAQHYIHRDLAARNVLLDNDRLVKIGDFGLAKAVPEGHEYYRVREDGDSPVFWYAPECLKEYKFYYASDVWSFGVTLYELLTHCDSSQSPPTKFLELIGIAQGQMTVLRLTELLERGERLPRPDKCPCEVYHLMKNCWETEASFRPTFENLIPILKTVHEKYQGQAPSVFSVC

SMILES	IC50 (JAK1) [nM]	IC50 (TYK2) [nM]
Cc1cc(Nc2ncc(C)c(N3CC(=CC#N)C3)n2)sn1 [E117-X]	< 75	< 75
Cc1cnc(Nc2cnn(C)c2)nc1N1CC(CCC#N)(N2CCN3C[C@H](F)C[C@H]3C2)C1 [E168a]	< 20	< 20
Cc1cnc(Nc2ccc3c(c2)CN(C)C3)nc1N1CC(CC(F)F)(C2CC2)C1 [E216-A]	< 10	< 10
Cc1cnc(Nc2cnn(C)c2)nc1N1CC(CC#N)(N2CCn3cccc3C2)C1 [E164a]	< 10	< 10
CO[C@H]1C[C@H]2CN(C3(CC#N)CN(c4nc(Nc5cc(C)ns5)ncc4C)C3)CCN2C1 [E71a]	< 10	< 10
Cc1cnc(Nc2cnn(C)c2)nc1N1CC(C)(NC(=O)c2cccc(F)c2)C1 [E307]	< 20	< 100
Cc1cc(Nc2ncc(C)c(N3CC(C)(CNC(=O)C4CCN(C(=O)OC(C)(C)C)CC4(F)F)C3)n2)sn1 (centres unmarked) [E284]	< 100	< 200
Cc1cnc(Nc2cnn(C)c2)nc1C1CC(C)(NC(=O)[C@@H]2CC2(F)F)C1 (some centres unmarked) [E279]	< 5	< 10
Cc1cc(Nc2ncc(C)c(N3CC(CC#N)(N4CCC5(CC4)CN(C)C5)C3)n2)sn1 [E28]	< 50	< 50
Cc1cc(Nc2ncc(C)c(N3CC(CC#N)(N4CCC5(CC4)CC5)C3)n2)sn1 [E39]	< 10	< 10
Cc1cc(Nc2ncc(C)c(N3CC(CC#N)(N4CCC(CCF)CC4)C3)n2)sn1 [E14]	< 10	< 10
Cc1cc(Nc2ncc(C)c(N3CC(CC#N)(N4CC5(CN(C)C5)C4)C3)n2)sn1 [E42]	< 1000	< 1000
Cc1cc(Nc2ncc(C)c(N3CC(CC#N)(N4CCN5C[C@H](F)C[C@H]5C4)C3)n2)sn1 [E67a]	< 10	< 10
Cc1cc(Nc2ncc(C)c(N3CC(CC#N)(N4CCN5CCC[C@H]5C4)C3)n2)sn1 [E62a]	< 50	< 50
Cc1cnc(Nc2cnn(C)c2)nc1N1CC(CC#N)(N2CCN(C)CC2)C1 [E80, 2-(1-(5-methyl-2-((1-methyl-1H-pyrazol-4-yl)amino)pyrimidin-4-yl)-3-(4-methylpiperazin-1-yl)azetidin-3-yl)acetonitrile]	< 20	< 20
Cc1cc(Nc2ncc(C)c(N3CC(CC#N)(NC(=O)Cc4ccccc4F)C3)n2)sn1 [E300]	< 20	< 20
Cc1cc(Nc2nccc(N3CC(CC#N)(N4CCN5C[C@H](F)C[C@H]5C4)C3)n2)sn1 [E97a]	< 50	< 10
Cc1cnc(Nc2ccc(C3(O)COC3)cc2)nc1N1CC(CC#N)(N2CCN(C)CC2)C1 [E79a]	< 50	< 10
Cc1cnc(Nc2cnn(C)c2)nc1N1CC(=CC#N)C1 [E174a]	< 100	< 200
CCC1(NC(=O)c2cccc(F)c2)CN(c2nc(Nc3cc(C)ns3)ncc2C)C1 [E318B]	< 10	< 10
Cc1cc(Nc2ncc(C)c(N3CC(CC#N)(N4CC5CC(C4)C5(F)F)C3)n2)sn1 [E31]	< 10	< 10
Cc1cnc(Nc2cc(CN(C)C)ns2)nc1N1CC(CC#N)(N2CCN3CCCC[C@H]3C2)C1 [E117-S]	< 25	< 10
Cc1cnc(Nc2ccc(S(C)(=O)=O)cc2)nc1N1CC(CC(F)F)(C2CC2)C1 [E216-B]	< 10	< 10
Cc1cc(Nc2ncc(C)c(N3CC(CC#N)(N4CC5CC(C5)C4)C3)n2)sn1 [E19]	< 10	< 10
Cc1cc(Nc2ncc(C)c(N3CC(CC#N)(NC(=O)c4ccncc4)C3)n2)sn1 [E298]	< 50	< 50
Cc1cc(Nc2ncc(C)c(N3CC(CCF)(N4CCCCC4)C3)n2)sn1 [E116a]	< 50	< 10
Cc1cnc(Nc2cnn(C)c2)nc1N1CC(CC#N)(N2CCN3CCCC[C@@H]3C2)C1 [E159a]	< 120	< 100
Cc1cc(Nc2ncc(C)c(N3CC(CC#N)(NCC4CCC(F)(F)C4)C3)n2)sn1 (centres unmarked) [E358]	< 10	< 10

Other lines, results leading:

IC50 (JAK1) [nM]	IC50 (TYK2) [nM]	SMILES
< 1000	< 200	COC(=O)CC1(N2CCN3C[C@H](F)C[C@H]3C2)CN(c2nc(Nc3cnn(C)c3)ncc2C)C1 [E166a]
< 50	< 100	CCC1(N2CCN3C[C@H](F)C[C@H]3C2)CN(c2nc(Nc3cnn(C)c3)ncc2C)C1 [E170a]
< 10	< 10	Cc1cc(Nc2ncc(C)c(N3CC(CC#N)(N4CCC5C(CC4)C5(F)F)C3)n2)sn1 (centres unmarked) [E52E]
< 10	< 10	Cc1cc(Nc2ncc(C)c(N3CC(CC#N)(NC(=O)c4cccc(Cl)c4)C3)n2)sn1 [E314]
< 10	< 5	Cc1cc(Nc2ncc(C)c(N3CC4(C3)CC4(F)F)n2)sn1 [E117-P]
< 10	< 10	Cc1cc(Nc2ncc(C)c(N3CC(CC#N)(NC(=O)[C@@H]4CC4(F)F)C3)n2)sn1 [E290, (S)—N-(3-(cyanomethyl)-1-(5-methyl-2-((3-methylisothiazol-5-yl)amino)pyrimidin-4-yl)azetidin-3-yl)-2,2-difluorocyclopropane-1-carboxamide]
< 10	< 10	Cc1cnc(Nc2cnn(C)c2)nc1N1CC(CC#N)(N2CCC3(CC2)CC3(F)F)C1 [E81]
< 10	< 10	Cc1cc(Nc2ncc(C)c(N3CC(CC#N)(N4CC5(C4)CC5(F)F)C3)n2)sn1 [E88a]
< 100	< 100	Cc1cc(Nc2ncc(C)c(N3CC(C)(CNC(=O)C4CN(C(=O)OC(C)(C)C)CC4(F)F)C3)n2)sn1 (centres unmarked) [E283]
< 50	< 50	Cc1cnc(Nc2cnn(C)c2)nc1N1CC(CCO)(N2CCN3C[C@H](F)C[C@H]3C2)C1 [E167a]
< 20	< 20	Cc1cc(Nc2ncc(C)c(N3CC(CC#N)(N4CCN5CC(F)(F)C[C@H]5C4)C3)n2)sn1 [E81a]
< 100	< 50	Cc1cc(Nc2ncc(C)c(N3CC(CC#N)(NC(C)c4cccc(F)c4)C3)n2)sn1 (centres unmarked) [E352]
< 200	< 200	Cc1cnc(Nc2cnn(C)c2)nc1N1CC(O)(CC2CC2)C1 [E175-B]
< 50	< 50	Cc1cnc(Nc2cnn(C)c2)nc1N1CC(CC#N)(N2CCN3C[C@H](C)C[C@H]3C2)C1 [E175a]
< 10	< 10	Cc1cc(Nc2ncc(C)c(N3CC(CC#N)(NC(=O)c4cccc(F)c4)C3)n2)sn1 [E304]
< 10	< 10	Cc1cc(Nc2ncc(C)c(N3CC(CC#N)(N4CCN(C)C5(CC5)C4)C3)n2)sn1 [E38]
< 10	< 10	Cc1cnc(Nc2cnn(C)c2)nc1N1CC(CC#N)(N2CCC3C(CC2)C3(F)F)C1 (centres unmarked) [E160a]

IC50 (JAK1) [nM]	IC50 (TYK2) [nM]	SMILES
< 10	< 20	Cc1cc(Nc2ncc(C)c(N3CC(C)(NC(=O)c4cccc(F)c4)C3)n2)sn1 [E309]
< 50	< 50	Cc1cc(Nc2ncc(C)c(N3CC(CC#N)(N4CC5(C4)CC(F)(F)CO5)C3)n2)sn1 [E112a]
< 20	< 10	Cc1cc(Nc2ncc(C)c(N3CC(O)(CC#N)C3)n2)sn1 [E114a]
< 100	< 120	Cc1cnc(Nc2cnn(C)c2)nc1N1CC(O)(CF)C1 [E175-A]
< 10	< 10	Cc1cc(Nc2ncc(C)c(N3CC(CC#N)(N4CCC5(CC4)CC5(F)F)C3)n2)sn1 [E22]
< 10	< 10	Cc1cnc(Nc2ccc3c(c2)CN(C)C3)nc1N1CC(CC#N)(N2CCCC3(C2)CC3(F)F)C1 (centres unmarked) [E111, 2-(3-(1,1-difluoro-5-azaspiro[2.5]octan-5-yl)-1-(5-methyl-2-((2-methylisoindolin-5-yl)amino)pyrimidin-4-yl)azetidin-3-yl)acetonitrile]
< 50	< 20	Cc1cc(Nc2ncc(C)c(N3CC(CC#N)(NC(=O)C4CCCC4)C3)n2)sn1 [E297]
< 50	< 20	CCS(=O)(=O)NC1(CC#N)CN(c2nc(Nc3cc(C)ns3)ncc2C)C1 [E301]
< 10	< 10	Cc1cnc(Nc2cnn(C)c2)nc1N1CC(CC#N)(N2CCN3CCCC[C@H]3C2)C1 [E171a]
< 50	< 10	Cc1cnc(Nc2ccc(N3CCOCC3)c(F)c2)nc1N1CC(CCC#N)C1 [E216-K]
< 10	< 10	COCCN1CCN(C2(CC#N)CN(c3nc(Nc4cc(C)ns4)ncc3C)C2)CC1 [E75]
< 250	< 120	Cc1cnc(Nc2cnn(C)c2)nc1N1CC(N2CCN3C[C@H](F)C[C@H]3C2)C1 [E169a]
< 10	< 10	Cc1cc(Nc2ncc(C)c(N3CC(CC#N)(N4CCN5CCC[C@@]5(C)C4)C3)n2)sn1 [E84a]
< 200	< 50	Cc1cc(Nc2ncc(C)c(N3CC(CC#N)(N4CCCN5CCCC5C4)C3)n2)sn1 (centres unmarked) [E115a]
< 5	< 5	Cc1cc(Nc2ncc(C)c(N3CC(CC#N)(N4CCN(CCCF)CC4)C3)n2)sn1 [E117-J]
< 10	< 10	Cc1cc(Nc2ncc(C)c(N3CC(CC#N)(N4CCC(C5CC5(F)F)CC4)C3)n2)sn1 (centres unmarked) [E40]
